Experimental data as given in patent US9278947B2, “Serotonin reuptake inhibitors as drugs having peripheral-system-restricted activity” (priority 2006, dated 2016).
Where two headings read alike, the source gives them in different places. Marks after values point to notes of the source that are not given here.

Tests used:
[1] = system: [^3H]noradrenaline uptake into rat brain synaptosomes; assay: [^3H]noradrenaline uptake by rat brain synaptosomes; type: biochemical; details: for inhibition of [^3H]noradrenaline uptake: at 8.5 nM
Procedure: (§1) [^3H]dopamine and [^3H]noradrenaline uptake assays were carried out in synaptosomes from rat brain cortex. After a 10 minutes pre-incubation period at 37° C., [^3H]dopamine or [^3H]noradrenaline were added to the tubes containing synaptosomes and tested drugs. The reactions were stopped after four minutes by rapid cooling on ice. Specific uptake was defined as the difference between total uptake at 37° C. (triplicate samples) and the uptake measured at 0° C. (duplicate samples). Three separate experiments were performed.

[2] = system: [^3H]dopamine uptake into rat brain synaptosomes; assay: [^3H]dopamine uptake by rat brain synaptosomes; type: biochemical; details: for inhibition of [^3H]dopamine uptake: at 45 nM
Procedure: as §1

mice [3] = assay: Collagen-epinephrine induced acute pulmonary thromboembolism in mice; type: in vivo; details: for death or paralysis after collagen-epinephrine injection versus control group: chronic treatment: aspirin 70 mg/kg, citalopram 10 mg/kg, NMC 10 mg/kg; for Number of mice who died: died or paralyzed after collagen-epinephrine into tail vein; for % death: died or paralyzed; for Mean % death ± S.E.M: mean of 3 experiments
Procedure: An experimental model of acute pulmonary thromboembolism was induced in mice by injecting a mixture of collagen (0.5 mg/kg) and epinephrine (0.5 mg/kg). […] The injection was followed by a massive activation of circulating platelets and the widespread formation of platelet thrombi in the microcirculation of the lungs leading to disseminated pulmonary microembolism and paralysis of the animal.

[4] = reported in reference [1]; cited from earlier work
mice [5] = assay: Tail bleeding time in chronically treated mice; type: in vivo; details: for Mean (n = 4) of mean bleeding time: mean over experiments (different doses)
Procedure: The anti-thrombotic effects of a drug can be evaluated in mice through a bleeding time experiment. Mice were treated by the tested drugs for two weeks, then anesthetized and placed on a warming pad before a segment of their tail was amputated. The tail was immersed in 0.9% isotonic saline at 37° C., and the time required for the stream of blood to stop was defined as the bleeding time. Different cuts and drug doses were tested. Control mice were administered either DDW (p.o) or saline (i.p). In some experiments (Nos. 5 and 6), half of the mice were administered DDW and half saline.

[6] = Experiment No. 1, 70 mg/kg for two weeks
[7] = Experiment No. 2, 70 mg/kg for two weeks
[8] = Experiment No. 3, 70 mg/kg for two weeks
[9] = Experiment No. 1, 10 mg/kg for two weeks
[10] = Experiment No. 2, 10 mg/kg for two weeks
[11] = Experiment No. 3, 10 mg/kg for two weeks
[12] = 10 mg/kg for two weeks (control 72 ± 2)
[13] = 3 mm tail amputation, Experiment No. 3, CJ57/black, 2 mg/kg p.o., two weeks
[14] = 3 mm tail amputation, Experiment No. 5, ICR, 10 mg/kg i.p., two weeks

SMILES | death or paralysis after collagen-epinephrine injection versus control group (mice [3]) | reduction of MI risk [4] | Mean (n = 4) of mean bleeding time (mice [5]; 3 mm tail amputation) | inhibition of [^3H]noradrenaline uptake [1] | inhibition of [^3H]dopamine uptake [2] | Number of mice who died (mice [3]; [9]) | Number of mice who died (mice [3]; [10]) | Number of mice who died (mice [3]; [11]) | % death (mice [3]; [9]) | % death (mice [3]; [10]) | % death (mice [3]; [11]) | Mean % death ± S.E.M (mice [3]; [12]) | Mean bleeding time (mice [5]; [13]) | Mean bleeding time (mice [5]; [14]) | also measured
OC1(c2ccc(Cl)cc2)c2ccccc2C2=NCCN21 (stereo not shown) [mazindol] | – | – | – | – | – | – | – | – | – | – | – | – | – | – | IC50 ([1]; rat brain synaptosomes, read-out: concentration inhibiting [^3H]noradrenaline uptake by 50%): 8.5 nM; IC50 ([2]; rat brain synaptosomes, read-out: concentration inhibiting [^3H]dopamine uptake by 50%): 45 nM
CC(=O)Oc1ccccc1C(=O)O [Aspirin] | significantly less prone to die or to be paralyzed | 20% | 288 s | – | – | – | – | – | – | – | – | – | – | – | Number of mice who died (mice [3]; [6]): 5/10; Number of mice who died (mice [3]; [7]): 5/12; Number of mice who died (mice [3]; [8]): 3/11; % death (mice [3]; [6]): 50%; % death (mice [3]; [7]): 42%; % death (mice [3]; [8]): 27%; Mean % death ± S.E.M (mice [3]; 70 mg/kg for two weeks (control 72 ± 2)): 40^a ± 7^ %; Mean bleeding time (mice [5]; 3 mm tail amputation, Experiment No. 2, CJ57/black, 40 mg/kg p.o., two weeks): 389 s; Mean bleeding time (mice [5]; 3 mm tail amputation, Experiment No. 3, CJ57/black, 40 mg/kg p.o., two weeks): 230 s; Mean bleeding time (mice [5]; 3 mm tail amputation, Experiment No. 4, CJ57/black, 70 mg/kg p.o., two weeks): 394 s; Mean bleeding time (mice [5]; 3 mm tail amputation, Experiment No. 5, ICR, 70 mg/kg p.o., two weeks): 145 s; Mean bleeding time (mice [5]; 4 mm tail amputation, Experiment No. 6, ICR, 40 mg/kg p.o.): 221 s; Mean bleeding time (mice [5]; amputation where tail diameter is 2 mm, Experiment No. 1, CJ57/black, 40 mg/kg p.o.): 233 s
COC(=O)[C@H](c1ccccc1Cl)N1CCc2sccc2C1 [clopidogrel] | – | 10% | – | – | – | – | – | – | – | – | – | – | – | – | –
CN(C)CCCC1(c2ccc(F)cc2)OCc2cc(C#N)ccc21 (stereo not shown) [Citalopram, 1-(3-Dimethylamino-propyl)-1-(4-fluoro-phenyl)-1,3-dihydro-isobenzofuran-5-carbonitrile] | did not cause a significant improvement | – | 171 s | did not have any effect | did not inhibit | 7/9 | 8/13 | 7/10 | 78% | 61% | 70% | 70 ± 5% | 179 s | 66 s | Mice behavior following injections, day 1 (ICR mice; 30 mg/day i.p., ICR mice, observed 1 hour): normal; Mice behavior following injections, day 3 (ICR mice; 100 mg/day i.p., ICR mice, observed 1 hour): looks weak
C[N+](C)(C)CCCC1(c2ccc(F)cc2)OCc2cc(C#N)ccc21 (stereo not shown) [NMC, N-methyl-citalopram] | significant decrease in death or paralysis | – | 191 s | less than 20% | less than 10% | 6/8 | 4/13 | 6/14 | 75% | 31% | 43% | 50^b ± 10% | 150 s | 124 s | dose at which not lethal to mice (ICR mice; i.p., mice): less than 50 mg/kg; Mice behavior following injections, day 1 (ICR mice; mouse, in vivo, ip): normal; Mice behavior following injections, day 2 (ICR mice; mouse, in vivo, ip): normal; Mice behavior following injections, day 3 (ICR mice; mouse, in vivo, ip): normal; doses that can be toxic (ICR mice; mouse, in vivo, ip): above 50 mg/kg
